US5478818A, “Estradiol derivative-alkylating agent conjugate with reduced hormonal activity, process for preparing the same, compounds useful for the preparation thereof, and growth inhibiting composition containing the conjugate or estradiol derivative” (priority 1993, dated 1995)
Read-outs that look alike come from different tables or passages of the source.

What was measured:
[1] = test system: uterus; assay: Estrogen action (uterine weight tests); format: in vivo; settings: once hypodermically, 3-week-old Wistar female rats, 24 hours; higher = weaker estrogen action
Procedure: The estrogen action of the conjugate and the estradiol derivative were each examined according to the uterine weight tests. The estrogen action was found diminished.
The test compounds and estradiol dissolved in sesame oil (containing 3% benzyl alcohol) were each administered once hypodermically to 3-week-old Wistar female rats. 24 hours later, the uterus of each test rat was removed and its weight (ratio to the body weight) was measured. From the relation between the uterus weight/body weight ratio and the dosage, the compound dosage that gives a uterus weight/body weight ratio twice that in the control group was determined. The dosages of the test compounds are shown as a ratio to the dosage of estradiol. 3-Benzoyloxy-1,3,5(10)-estratriene-17β-[4-[p-[bis (2-chloroethyl)amino]phenyl]-butyryloxy]acetate was used as a comparative compound.

[2] = test system: SC-115 cells; assay: Growth inhibiting effect in testosterone-added system using SC-115 cells (tritium-labeled thymidine uptake); format: cell-based
Procedure: Uptake of tritium-labeled thymidine was examined in a serum free culture system using testosterone-dependent SC-115 cells. Strong inhibitory effects of the conjugate and the estradiol derivatives were shown.
The SC-115 cells were cultured on a 96-well microplate (5,000 cells/well) for 24 hours with a culture medium (200 μl/well; Ham's F-12/MEM-E (98% ), dextran-treated fetal calf serum (2%) and testosterone (1×10^-8 M)). The culture medium was replaced with fresh medium containing the test compound (Ham's F-12/MEM-E, bovine serum albumin (0.1%), testosterone (1×10^-8 M) and test compound of various concentrations). The culture medium was replaced every two days, and culture was continued for 7 days. Thymidine (1 μci/ml, tritium-labeled)was added, and 5 hours later, the culture medium was removed. The cells were washed with PBS and then washed twice with ice-cold trichloroacetic acid (10%). Then the cells were dissolved in 0.5N sodium hydroxide and neutralized with 0.5N hydrochloric acid. The radioactivity of the neutralized solution was measured by a liquid scintillation counter to determine the growth inhibiting effect (IC50).

[3] = test system: DU-145 cells; assay: Growth inhibiting effect in bFGF-added system using DU-145 cells (tritium-labeled thymidine uptake); format: cell-based
Procedure: Uptake of tritium-labeled thymidine was examined in a serum free culture system using bFGF-dependent DU-145 cells. Strong inhibitory effects of the conjugate and the estradiol derivative were shown.
The DU-145 cells were cultured on a 96-well microplate (5,000 cells/well) for 24 hours with a culture medium (200 μl/well; Ham's F-12/MEM-E (98%) and dextran-treated fetal calf serum (2%)). Then the culture medium was replaced with fresh medium containing the test compound (Ham's F-12/MEM-E, bovine serum albumin (0.1%), bovine pituitary-derived bFGF (1 ng/ml) and the test compound of various concentrations). Culture with this medium was continued for 4 days. Thymidine (1 μci/ml, tritium-labeled) was added, and 5 hours layer, the culture medium was removed. The cells were washed with PBS and then washed twice with ice-cold trichloroacetic acid (10%). Then the cells were dissolved in 0.5N sodium hydroxide and neutralized with 0.5N hydrochloric acid. The radioactivity of the neutralized solution was measured by a liquid scintillation counter to determine the growth inhibiting effect (IC50).

[4] = 168 h, SC-115 cells, testosterone 1×10^-8 M, 7 days, read-out: IC50
[5] = SC-115 cells, testosterone 1×10^-8 M, 7 days, read-out: IC50
[6] = DU-145 cells, bFGF 1 ng/ml, 4 days, read-out: IC50

| Molecule | Dosage that gives a uterus wt/body wt ratio twice that in control group (ratio to estradiol dosage) [1] | IC50 [2, 4] | IC50 [2, 5] | IC50 ([3]; Homo sapiens, 96 h, DU-145 cells, bFGF 1 ng/ml, 4 days, read-out: IC50) | IC50 [3, 6] | IC50 ([2]; 168 h) | IC50 ([3]; Homo sapiens, DU-145, 96 h, read-out: IC50 (ND*: no inhibiting action observed)) |
| --- | --- | --- | --- | --- | --- | --- | --- |
| Cc1cc(OC(=O)c2ccccc2)cc2c1[C@H]1CC[C@]3(C)[C@@H](OCCO)CC[C@H]3[C@@H]1CC2 [II-3, 2-[3-benzoyloxy-1,3,5(10) -estratriene-1-methyl-17β-oxy]ethanol] | > 7000 ratio to estradiol dosage | 1.5 µM |  |  |  |  |  |
| C[C@]12CC[C@@H]3c4ccc(OC(=O)c5ccccc5)cc4CC[C@H]3[C@@H]1CC[C@@H]2OCCOC(=O)CCCc1ccc(N(CCCl)CCCl)cc1 [Compound I-6, 1-[3-benzoyloxy-1,3,5(10)-estratriene-17β-oxy]-2-[4-[p-[bis (2-chloroethyl)amino]phenyl]-butyryloxy]ethane] | > 7000 ratio to estradiol dosage |  | 1.5 µM |  |  |  |  |
| C[C@]12CC[C@@H]3c4ccc(OCc5ccccc5)cc4CC[C@H]3[C@@H]1CC[C@@H]2OCCO [II-1, 2-[3-benzyloxy-1,3,5 (10) -estratriene-17β-oxy]ethanol] | 200 ratio to estradiol dosage | 0.2 µM |  | 2.9 µM |  |  |  |
| C[C@]12CC[C@@H]3c4ccc(OCc5ccccc5)cc4CC[C@H]3[C@@H]1CC[C@@H]2OCCOCCCCc1ccc(N(CCCl)CCCl)cc1 [Compound I-1, 1-[3-benzyloxy-1,3,5(10) -estratriene-17β-oxy]-2-[4-[p-[bis (2-chloroethyl)amino]phenyl]butoxy]ethane] | > 7000 ratio to estradiol dosage |  | 1.2 µM |  | 4.6 µM |  |  |
| C[C@]12CC[C@@H]3c4ccc(OC(=O)c5ccccc5)cc4CC[C@H]3[C@@H]1CC[C@@H]2OCCOCCCCc1ccc(N(CCCl)CCCl)cc1 [Compound I-2, 1-[3-benzoyloxy-1,3,5(10)-estratriene-17β-oxy]-2-[4-[p-[bis (2-chloroethyl)amino]phenyl]butoxy]ethane] | > 7000 ratio to estradiol dosage |  | 1.3 µM |  | 7.8 µM |  |  |
| Cc1cc(OCc2ccccc2)cc2c1[C@H]1CC[C@]3(C)[C@@H](OCCO)CC[C@H]3[C@@H]1CC2 [II-2, 2-[3-benzyloxy-1,3,5(10) -estratriene-1-methyl-17β-oxy]ethanol] | > 7000 ratio to estradiol dosage | 0.7 µM |  |  |  |  |  |
| C[C@]12CC[C@@H]3c4ccc(OC(=O)c5ccccc5)cc4CC[C@H]3[C@@H]1CC[C@@H]2OCCOCCCCc1ccc(N(CCO)CCO)cc1 [Compound I-4] | 1400 ratio to estradiol dosage |  | 0.8 µM |  |  |  |  |
| 1-[3-benzoyloxy-1,3,5(10)-estratriene-1-methyl-17β-oxy]-2-[4-[p-[bis(2-hydroxyethyl)amino]phenyl]-butoxy]ethane [Compound I-3] | > 7000 ratio to estradiol dosage |  | 0.2 µM |  | 9.2 µM |  |  |
| C[C@]12CC[C@@H]3c4ccc(OCc5ccccc5)cc4CC[C@H]3[C@@H]1CC[C@@H]2OCCOC(=O)CCCc1ccc(N(CCCl)CCCl)cc1 [Compound I-5, 1-[3-benzyloxy-1,3,5(10)-estratriene-17β-oxy]-2-[4-[p-[bis(2-chloroethyl)amino]phenyl]-butyryloxy]ethane] | > 7000 ratio to estradiol dosage |  | 0.5 µM |  |  |  |  |
| C[C@]12CC[C@@H]3c4ccc(OC(=O)c5ccccc5)cc4CC[C@H]3[C@@H]1CC[C@@H]2OC(=O)COC(=O)CCCc1ccc(N(CCCl)CCCl)cc1 [Comparative compound, 3-Benzoyloxy-1,3,5(10)-estratriene-17β-[4-[p-[bis (2-chloroethyl)amino]phenyl]-butyryloxy]acetate, reference compound] | 200 ratio to estradiol dosage |  |  |  |  | 2.6 µM | > 10 µM |
